Values of other authors, collected in patent US10544223B2, “Combination therapy with an anti-axl antibody-drug conjugate” (ADC THERAPEUTICS SA, priority 2017, dated 2020).

Assays:
[1] = system: DNA repair genes; conditions: inhibition of AXL
[2] = system: AXL; conditions: incubation of tumor cells with MEKi
[3] = system: ERCC1 transcription
[4] = system: advanced melanoma; conditions: phase III trials, advanced melanoma patients

Compound	efficiency of the homologous recombination repair machinery [1]	expression of DNA repair genes [1]	accumulation of AXL on the membrane of tumor cells [2]	other results
Nc1nc(Nc2ccc3c(c2)CC[C@@H](N2CCCC2)CC3)nn1-c1cc2c(nn1)-c1ccccc1CCC2 [BGB324]	diminish the efficiency of the homologous recombination repair machinery	decrease expression of DNA repair genes		
O=C(NOC[C@H](O)CO)c1ccc(F)c(F)c1Nc1ccc(I)cc1F [PD325901]			induced a strong accumulation of AXL	
CN1CCN(Cc2ccc(Nc3ncc(Cl)c(Nc4ccccc4S(=O)(=O)N(C)C)n3)cc2)CC1 [TP0903]	diminish the efficiency of the homologous recombination repair machinery	decrease expression of DNA repair genes		
N#CC(=C(/N)Sc1ccccc1N)/C(C#N)=C(\N)Sc1ccccc1N [U0126]			induced a strong accumulation of AXL	
Fludarabine				ERCC1 transcription [3]: suppress ERCC1 transcription
tremelimumab: anti-CTLA4 antibody				overall survival compared to the standard of care (temozolomide or dacarbazine) [4]: did not significantly increase the overall survival
